For data set [1] the following is noted: orally administered; cited from earlier work.
Data set [2] can be described thus: Dog plasma half-life after oral dose. It is filed as in vivo. The following applies: oral, Beagle dogs, 0.3 mg/kg dose, plasma over 72 hours, read-out: t½ (hrs), Dog Plasma Compound Half-life (converted). The procedure:
Lastly, plasma half-life was assessed for a number of compounds in dogs. Beagle dogs were given an oral dose (0.1 mg/kg) of the respective compound accounting for a dose amount of about 1 mg/dog. Pimopendan was administered at a 0.3 mg/kg dose.

A further data set deals with PDE3. The settings on record: JMC Vol. 35, 1992; cited from earlier work.
Data set [3] concerns the target dog PDE3A recombinant enzyme (Canis lupus familiaris, UniProt A0A8I3NYE0). Kind of data set: cPDE3A assay (fluorescent polarization). Type of data set: biochemical. The settings on record: canine PDE3A, read-out: cPDE3 Inhibition (IC50). Summed up: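 Recombinant dog PDE3A (5 pg/μL final) with FAM-cyclic-3′,5′-AMP substrate, inhibition read as fluorescence polarization change. Compounds tested in ≥7-point series from 10 μM, 0.1% final DMSO; IC50 calculated.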

A further data set has as its system NT-proBNP. Nature of the data set: NT-proBNP circulating biomarker reduction. It is filed as in vivo, canine. The settings on record: labeled dose, 24 hours post dose. As for the experimental part: NT-proBNP is a standard circulating biomarker of canine MMVD secreted by ventricular cardiomyocytes in response to stretching from volume or pressure overload. It is a well-defined diagnostic and prognostic biological indicator of myocardial wall stress and can be used as a biomarker for acute changes in left ventricular loading conditions. […] In one instance, Example #26 had reduced NT-proBNP levels by 49% and 62% at doses of 0.03 and 0.1 mg/kg, respectively, over a 12 hour period.

The test system of data set [4] is human iCell cardiomyocytes. Kind of data set: Human iPS cardiomyocyte contractility assay. It is filed as cell-based. The following applies: human cardiomyocytes chronically paced (2 Hz). As for the experimental part: Human iPS Cardiomyocyte Contractility Assay
Frozen human iCell® cardiomyocytes (FujiFilm® Cellular Dynamics Inc.) were thawed and plated in the center of each well of an Axion® Biosystems cytoview 24-well microelectrode array plate that was coated with human fibronectin in a 5-6 μL droplet at a density of 7-10×10^6 cells/mL. The cells were maintained in culture in a 37° C. humidified incubator at 5% CO2. After at least seven days in culture with maintenance media changes every 2-3 days, the cells were paced at 2 Hz for approximately 48 hours on the Axion® Biosystems Maestro Pro instrument using the field potential application in the Axis Navigator software before returning to the spontaneous beating for at least 10 minutes in the contractility application (i.e., Axion® Biosystems procedure for Positive Inotropy Protocol). […] Readings were taken at 3, 13, 23, 33, 43 and 53 minutes. […] Each compound was evaluated for the contractility response relative to the vehicle control (DMSO). […]
Myocardial contractility represents the innate ability of the heart muscle to contract. […] Cardiomyocyte contractibility of the compounds of the invention, as defined by changes in mean % delta beat amplitude, were determined to have a positive inotropic effect (i.e., a stronger cardiac muscle contraction force).

The next data set has as its system calcium sensitization. The settings on record: JMC Vol. 35, 1992; cited from earlier work.

Data on two molecules can be found in patent US20240308973A1, “PHOSPHODIESTERASE 3 (PDE3) INHIBITORS” (Zoetis Services LLC, priority 2023, published 2024).

As usually defined, the half-life is the time needed for the level to fall by half in the phase considered. The term IC50 denotes the concentration needed to halve the response being measured.

Several values for one entry are separate records, joined by “and”; a condition that tells them apart may be missing. Equal values may be shown once.

Sequence of dog PDE3A recombinant enzyme (A0A8I3NYE0 1-1135): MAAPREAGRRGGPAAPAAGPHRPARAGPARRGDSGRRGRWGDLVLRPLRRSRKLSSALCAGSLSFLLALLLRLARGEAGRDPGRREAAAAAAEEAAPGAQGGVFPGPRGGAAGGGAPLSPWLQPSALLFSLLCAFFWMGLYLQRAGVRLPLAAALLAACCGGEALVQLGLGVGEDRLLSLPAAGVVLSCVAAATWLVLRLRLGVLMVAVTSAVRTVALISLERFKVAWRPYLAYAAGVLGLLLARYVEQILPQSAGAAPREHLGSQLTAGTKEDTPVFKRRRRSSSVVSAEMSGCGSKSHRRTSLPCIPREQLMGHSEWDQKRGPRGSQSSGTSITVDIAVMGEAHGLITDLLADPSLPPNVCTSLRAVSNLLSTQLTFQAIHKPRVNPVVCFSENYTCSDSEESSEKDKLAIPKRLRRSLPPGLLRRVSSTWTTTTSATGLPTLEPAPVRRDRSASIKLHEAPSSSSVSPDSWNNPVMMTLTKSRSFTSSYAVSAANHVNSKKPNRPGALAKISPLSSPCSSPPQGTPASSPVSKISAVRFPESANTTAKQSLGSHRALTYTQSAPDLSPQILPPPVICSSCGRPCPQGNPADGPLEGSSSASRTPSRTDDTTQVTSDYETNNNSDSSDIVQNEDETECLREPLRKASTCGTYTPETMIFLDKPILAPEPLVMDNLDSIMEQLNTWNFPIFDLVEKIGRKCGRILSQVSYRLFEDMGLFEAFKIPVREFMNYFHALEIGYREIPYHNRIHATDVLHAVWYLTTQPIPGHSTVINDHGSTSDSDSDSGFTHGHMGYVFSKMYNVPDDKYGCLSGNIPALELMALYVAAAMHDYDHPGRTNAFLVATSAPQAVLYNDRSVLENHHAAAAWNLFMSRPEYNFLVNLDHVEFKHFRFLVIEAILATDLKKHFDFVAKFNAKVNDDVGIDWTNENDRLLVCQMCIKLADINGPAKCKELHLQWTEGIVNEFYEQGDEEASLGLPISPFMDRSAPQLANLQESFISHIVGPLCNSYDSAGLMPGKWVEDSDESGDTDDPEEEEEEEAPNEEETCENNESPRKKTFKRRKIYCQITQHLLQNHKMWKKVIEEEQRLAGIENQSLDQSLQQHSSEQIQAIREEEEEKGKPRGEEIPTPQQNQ

On to `COc1ccc(-c2nc3ccc(C4=NNC(=O)CC4C)cc3[nH]2)cc1` (racemic) [pimobendan, 6-(2-(4-methoxyphenyl)-1H-benzo[d]imidazol-6-yl)-5-methyl-4,5-dihydropyridazin-3 (2H)-one], for which, in data set [1], the bioavailability is listed as 60-65%, the elimination half-life is around 96 min and the tmax result is “about 2 hours”. The half-life in data set [2] is 0.4 h. In addition, the IC50 with PDE3 was 560 nM. Besides, in data set [3], the half-inhibitory concentration (IC50) was ~1530 nM and 1530 nM. In the data set with NT-proBNP, the “decrease in NT-proBNP” value was found to be 41%. Moreover, the “contractility of cardiomyocytes (changes in mean % delta beat amplitude)” value in data set [4] was “dose dependently increases contractility”.

Turning to `CC1(C)C(=O)Nc2ccc(C3=NNC(=O)CC3)cc21` [indolidan], the calcium-sensitizing properties entry with calcium sensitization is given as “lacked calcium-sensitizing properties”. Moreover, the IC50 in the data set with PDE3 is 520 nM.
